The values that follow are results of earlier work, collected in US20090182024A1, “EXTENDED RELEASE TABLET FORMULATION CONTAINING PRAMIPEXOLE OR A PHARMACEUTICALLY ACCEPTABLE SALT THEREOF” (BOEHRINGER INGELHEIM INTERNATIONAL GMBH, priority 2004, published 2009).

Structures can show the parent of a compound that is named as a salt.

Experiment in data set [1]: not given
The source holds these as a separate data set.

The conditions of data set [2]: in vivo.

Consider `CCCN[C@H]1CCc2nc(N)sc2C1` [Pramipexole dihydrochloride monohydrate, pramipexole dihydrochloride monohydrate], for which the “solubility in buffer media” value (between pH 2 and pH 7.4) is listed as “above 10 mg/mL”. The Water solubility result (water) is on record as “more than 20 mg/mL”.

`CCCN[C@H]1CCc2nc(N)sc2C1` [Pramipexole, (S)-2-amino-4,5,6,7-tetrahydro-6-(propylamino)benzothiazole]: in data set [1] (in solution), the stability in solution entry is listed as “light sensitive”. For the same molecule, the “stability in the solid state” value in data set [1] (solid state) was “very stable”. Also, the kinetics entry in data set [2] is given as “linear kinetics”.
